Results reported in US8686024B2, “Indoline derivatives” (priority 2009, dated 2014).
Where two headings read alike, the source gives them in different places.

Tests used:
[1] = target: T1, acetylcholine esterase (AChE) (Mus musculus, UniProt P21836); experiment: In vitro assay for choline esterase inhibition (Ellman method), acetylthiocholine substrate, mouse brain homogenate; assay type: biochemical
T1 construct: brain homogenate and serum of mouse were used as choline esterase enzyme sources; from tissue; host or cells: mouse brain homogenate
T1 sequence (P21836 32-614): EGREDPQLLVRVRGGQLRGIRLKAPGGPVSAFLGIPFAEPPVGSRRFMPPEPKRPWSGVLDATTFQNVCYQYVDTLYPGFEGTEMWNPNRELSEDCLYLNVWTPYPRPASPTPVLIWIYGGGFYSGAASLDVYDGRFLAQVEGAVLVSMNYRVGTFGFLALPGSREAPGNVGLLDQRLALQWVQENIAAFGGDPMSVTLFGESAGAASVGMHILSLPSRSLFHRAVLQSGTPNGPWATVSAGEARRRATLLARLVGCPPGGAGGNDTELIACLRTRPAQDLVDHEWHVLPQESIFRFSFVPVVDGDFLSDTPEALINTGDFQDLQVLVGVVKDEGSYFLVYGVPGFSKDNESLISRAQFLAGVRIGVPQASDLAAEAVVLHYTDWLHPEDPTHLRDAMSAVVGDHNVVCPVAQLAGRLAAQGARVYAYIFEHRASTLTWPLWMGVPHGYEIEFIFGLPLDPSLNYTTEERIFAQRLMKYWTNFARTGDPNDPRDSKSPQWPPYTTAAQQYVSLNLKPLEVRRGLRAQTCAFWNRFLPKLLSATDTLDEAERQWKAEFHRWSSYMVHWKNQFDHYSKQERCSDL
Procedure: (§1) For measurement of esterase activity, brain homogenate and serum of mouse were used as choline esterase enzyme sources, and the method of Ellman et. al (Biochemical pharmacology 7: 88-95 1961) were referred. Compound of each example were diluted in dimethylsulfoxide.
(§2) In detail, acetylthiocholine or butyrylthiocholine as substrates, test compounds, and DNTB [[…]] were added to the mouse brain homogenate or serum, respectively.
(§3) After incubation, thiocholine was produced by enzyme reaction in the mixture, and then, the yellow product was formed by the reaction of thiocholine and DTNB. The activity of acetylcholine esterase (AChE) or butyrylcholine esterase (BuChE) was evaluated by determination of absorbance at 415 nm. […] And the selectivity for BuChE inhibition of each compound was calculated by the ratio: IC50 (AchE)/IC50 (BuChE).

[2] = target: T2, butyrylcholine esterase (BuChE) (Mus musculus, UniProt Q03311); experiment: In vitro assay for choline esterase inhibition (Ellman method), butyrylthiocholine substrate, mouse serum; assay type: biochemical; settings: for Ratio AChE/BuChE: selectivity for BuChE inhibition: IC50 (AchE)/IC50 (BuChE); for selectivity to butyrylcholinesterase (BuChE versus AChE inhibitory activity), in words: summary of Tables 1-3
T2 construct: brain homogenate and serum of mouse were used as choline esterase enzyme sources; from tissue; host or cells: mouse serum
Procedure: as §1, §2, §3

[3] = mouse brain homogenate, acetylthiocholine, absorbance at 415 nm, read-out: AChE inhibitory activity IC50
[4] = mouse serum, butyrylthiocholine, absorbance at 415 nm, read-out: BuChE inhibitory activity IC50

T2 sequence (Q03311 30-603): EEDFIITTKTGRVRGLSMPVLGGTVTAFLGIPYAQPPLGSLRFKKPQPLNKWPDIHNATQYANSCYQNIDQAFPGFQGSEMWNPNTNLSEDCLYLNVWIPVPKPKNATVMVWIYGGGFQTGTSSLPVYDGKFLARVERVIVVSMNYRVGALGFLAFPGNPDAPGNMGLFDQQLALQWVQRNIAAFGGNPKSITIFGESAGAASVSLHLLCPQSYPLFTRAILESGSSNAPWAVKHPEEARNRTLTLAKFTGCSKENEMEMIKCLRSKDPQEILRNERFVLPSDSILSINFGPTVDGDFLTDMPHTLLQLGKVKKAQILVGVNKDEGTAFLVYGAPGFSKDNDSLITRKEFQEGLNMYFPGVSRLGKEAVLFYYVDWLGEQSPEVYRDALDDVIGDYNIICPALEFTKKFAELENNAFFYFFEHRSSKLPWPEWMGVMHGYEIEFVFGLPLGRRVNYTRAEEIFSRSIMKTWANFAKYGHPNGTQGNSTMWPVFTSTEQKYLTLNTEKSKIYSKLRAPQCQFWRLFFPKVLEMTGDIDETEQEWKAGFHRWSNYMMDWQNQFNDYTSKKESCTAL

Row | SMILES | IC50 [1] [nM] | IC50 [2] [nM] | Ratio AChE/BuChE [2] | selectivity to butyrylcholinesterase (BuChE versus AChE inhibitory activity), in words [2] | IC50 [1, 3] [nM] | IC50 [2, 4] [nM] | IC50 ([1]; read-out: AChE inhibitory activity IC50) [nM]
1 | CN(C)c1ccc(NC(=O)Oc2ccc3c(c2)CCN3Cc2ccccc2)cc1 [Example 133, 1-benzylindolin-5-yl 4-dimethylaminophenylcarbamate] | > 100000 | 39 | >2600 | much higher |  |  | 
2 | O=C(Nc1ccc2c(c1)OCCO2)Oc1ccc2c(c1)CCN2Cc1ccccc1 [Example 11, 1-benzylindolin-5-yl 2,3-dihydro-1,4-benzodioxin-6-ylcarbamate] | > 100000 | 170 | >590 |  |  |  | 
3 | CC(=O)NCCC1CN(Cc2ccccc2)c2ccc(OC(=O)Nc3ccc(C(C)C)cc3)cc21 (centres unmarked) [Example 160, 3-(2-acetamidethyl)-1-benzylindolin-5-yl-4-isopropylphenylcarbamate] | > 100000 | 550 | >180 |  |  |  | 
4 | CCCN(CCC)C(=O)CC1CN(Cc2ccccc2)c2ccc(OC(=O)Nc3ccc(C(C)C)cc3)cc21 (centres unmarked) [Example 161, 1-benzyl-3-(di-n-propylaminocarbonylmethyl)indolin-5-yl 4-isopropylphenylcarbamate] | > 100000 | 150 | >670 |  |  |  | 
5 | CC(C)c1ccc(NC(=O)Oc2ccc3c(c2)C(C)CN3Cc2ccccc2)cc1 (centres unmarked) [Example 146, 1-benzyl-3-methylindolin-5-yl-4-isopropylphenylcarbamate] |  |  | >560 |  | > 100000 | 180 | 
6 | CN(C)CC(C)(C)CNC(=O)Oc1ccc2c(c1)CCN2Cc1ccccc1 [Example 156, 1-benzylindolin-5-yl 3-dimethylamino-2,2-dimethylpropylcarbamate] | > 100000 | 510 | >200 |  |  |  | 
7 | O=C(NC1CCCCCCC1)Oc1ccc2c(c1)CCN2Cc1ccccc1 [Example 45, 1-benzylindolin-5-yl cyclooctylcarbamate] | > 100000 | 21 | >4800 | much higher |  |  | 
8 | COc1cc(CN2CCc3cc(OC(=O)Nc4ccc(C(C)C)cc4)ccc32)ccc1O [Example 67, 1-(4-hydroxy-3-methoxybenzyl)indolin-5-yl-4-isopropylphenylcarbamate] |  |  | >77 |  | > 100000 | 1300 | 
9 | Cc1ccc(CCNC(=O)Oc2ccc3c(c2)CCN3Cc2ccccc2)cc1 [Example 91, 1-benzylindolin-5-yl-4-methylphenethylcarbamate] |  |  | >1700 | much higher | > 100000 | 59 | 
10 | O=C(NCc1cccs1)Oc1ccc2c(c1)CCN2Cc1ccccc1 [Example 98, 1-benzylindolin-5-yl 2-thiophenemethylcarbamate] |  |  | 130 | much higher | 1600 | 12 | 
11 | O=C(NC1CC1)Oc1ccc2c(c1)CCN2Cc1ccccc1 [Example 41, 1-benzylindolin-5-yl cyclopropylcarbamate] |  |  | 190 |  | 36000 | 190 | 
12 | O=C(Nc1ccc2c(c1)OCO2)Oc1ccc2c(c1)CCN2Cc1ccccc1 [Example 12, 1-benzylindolin-5-yl 5-benzo[d][1,3]dioxolylcarbamate] |  |  | 38 |  | 11000 | 290 | 
13 | Cc1ccc(NC(=O)Oc2ccc3c(c2)CCN3Cc2ccccc2)cc1 [Example 55, 1-benzylindolin-5-yl-4-methylphenylcarbamate] |  |  | >340 |  |  | 290 | > 100000
14 | CN(CC1CCCCC1)C(=O)Oc1ccc2c(c1)CCN2Cc1ccccc1 [Example 214, O-(1-benzylindolin-5-yl)-N-(cyclohexylmethyl)-N-methylcarbamate] | > 100000 | 51 | >2000 | much higher |  |  | 
15 | Cc1ccc(NC(=O)Oc2ccc3c(c2)CCN3Cc2ccccc2)cc1C [Example 113, 1-benzylindolin-5-yl 3,4-dimethylphenylcarbamate] | > 100000 | 160 | >630 |  |  |  | 
16 | CC(C)c1ccc(NC(=O)Oc2ccc3c(c2)CCN3CC2CCCCC2)cc1 [Example 75, 1-(cyclohexylmethyl)indolin-5-yl 4-isopropylphenylcarbamate] | > 100000 | 770 | >130 |  |  |  | 
17 | O=C(NCCc1ccccc1)Oc1ccc2c(c1)CCN2Cc1ccccc1 [Example 16, 1-benzylindolin-5-yl phenethylcarbamate] |  |  | 230 | much higher | 9800 | 42 | 
18 | CN(C)c1ccc(NC(=O)Oc2ccc3c(c2)CCN3Cc2ccccn2)cc1 [Example 152, 1-(2-pyridylmethyl)indolin-5-yl 4-dimethylaminophenylcarbamate] |  |  | 19 |  | 1100 | 57 | 
19 | C=C(C)CNC(=O)Oc1ccc2c(c1)CCN2Cc1ccccc1 [Example 53, 1-benzylindolin-5-yl 2-methylallylcarbamate] |  |  | 1600 | much higher | 46000 | 28 | 
20 | O=C(Nc1ccc2c(c1)CCC2)Oc1ccc2c(c1)CCN2Cc1ccccc1 [Example 85, 1-benzylindolin-5-yl 5-indanylcarbamate] | > 100000 | 420 | >240 |  |  |  | 
21 | CC(C)c1ccc(NC(=O)Oc2ccc3c(c2)CCN3Cc2c[nH]c3ccccc23)cc1 [Example 80, 1-(indol-3-ylmethyl)indolin-5-yl 4-isopropylphenylcarbamate] | > 100000 | 140 | >710 |  |  |  | 
22 | CN(CC1CCCCC1)C(=O)Oc1ccc2c(c1)C(C)(C)CN2Cc1ccccc1 [Example 216, O-(1-benzyl-3,3-dimethylindolin-5-yl)-N-(cyclohexylmethyl)-N-methylcarbamate] | 54000 | 2.4 | 23000 | much higher |  |  | 
23 | O=C(NCCc1ccc(Cl)cc1Cl)Oc1ccc2c(c1)CCN2Cc1ccccc1 [Example 118, 1-benzylindolin-5-yl 2,4-dichlorophenethylcarbamate] | > 100000 | 10 | >10000 | much higher |  |  | 
24 | O=C(NCCSCc1ccco1)Oc1ccc2c(c1)CCN2Cc1ccccc1 [Example 54, 1-benzylindolin-5-yl 2-(furfurylthio)ethylcarbamate] | > 100000 | 15 | >6700 | much higher |  |  | 
25 | CCCNC(=O)Oc1ccc2c(c1)CCN2Cc1ccccc1 [Example 114, 1-benzylindolin-5-yl n-propylcarbamate] |  |  | 29 |  | 5200 | 180 | 
26 | O=C(NCc1ccccn1)Oc1ccc2c(c1)CCN2Cc1ccccc1 [Example 102, 1-benzylindolin-5-yl 2-pyridylmethylcarbamate] |  |  | 77 |  | 10000 | 130 | 
27 | CNC(=O)Oc1ccc2c(c1)CCN2Cc1ccccc1 [Example 131, 1-benzylindolin-5-yl methylcarbamate] | 1300 | 210 | 6.2 |  |  |  | 
28 | CC(C)c1ccc(NC(=O)Oc2ccc3c(c2)CCN3Cc2ccccn2)cc1 [Example 60, 1-(2-pyridylmethyl)indolin-5-yl 4-isopropylphenylcarbamate] | > 100000 | 130 | >770 |  |  |  | 
29 | O=C(NC1CCCCC1)Oc1ccc2c(c1)CCN2Cc1ccccc1 [Example 20, 1-benzylindolin-5-yl cyclohexylcarbamate] | > 100000 | 67 | >1500 | much higher |  |  | 
30 | C[C@H](NC(=O)Oc1ccc2c(c1)CCN2Cc1ccccc1)c1ccccc1 [Example 19, 1-benzylindolin-5-yl (S)-1-phenylethylcarbamate] | > 100000 | 190 | >530 |  |  |  | 
